Measured values published in US20230390251A1, “METHODS OF TREATING RIBONUCLEOTIDE REDUCTASE-RELATED DISEASES WITH A RIBONUCLEOTIDE REDUCTASE INHIBITOR” (TAIHO PHARMACEUTICAL CO., LTD., priority 2020, published 2023).

What was measured:
[1] = test system: NCI-H460 cells; assay: Caspase-Glo 3/7 caspase induction assay in NCI-H460 cells treated with siRNA against SLFN11; type: cell-based; conditions: 10 micro mol/L, 24 h; NCI-H460 cells transfected with siRNA against SLFN11
Method: (§1) A673 cells, NCI-H460 cells and CFPAC-1 cells were transfected with 1 nM siRNAs for 24 h using Lipofectaminet®RNAiMAX Reagent (Thermo Fisher Scientific Inc.) and then re-seeded onto a 96-well plate for cell proliferation assay and caspase induction assay and onto dishes for immunoblotting analysis. siRNAs were obtained from Thermo Fisher Scientific Inc. as follows: Silencer® Select Negative Control #1 siRNA (#4390843 used as siControl), SLFN11 Silencer® Select Pre-designed siRNA (#s40703 used as siSLFN11-1, #s40704 as siSLFN11-2, and #s40702 as siSLFN11-3).
(§2) Caspase induction assay was performed in accordance with conventional methods, available in Hasako., et al., ibid. Briefly, the cells with siRNAs for 24 h were seeded onto 96 well plate, incubated for 24 h, and then treated with Compound A for 24 h. Caspase induction was detected by using the Caspase-Glo 3/7 assay (Promega).

[2] = test system: A673 cells; assay: Caspase-Glo 3/7 caspase induction assay in A673 cells treated with siRNA against SLFN11; type: cell-based; conditions: 10 micro mol/L, 24 h; A673 cells transfected with siRNA against SLFN11
Method: as §1, §2

[3] = target: T1, Ribonucleotide reductase (RNR) (Homo sapiens, UniProt P23921+P31350); conditions: from the literature (NPL 7; PL 1); cited from earlier work
T1 sequence (P23921 1-792): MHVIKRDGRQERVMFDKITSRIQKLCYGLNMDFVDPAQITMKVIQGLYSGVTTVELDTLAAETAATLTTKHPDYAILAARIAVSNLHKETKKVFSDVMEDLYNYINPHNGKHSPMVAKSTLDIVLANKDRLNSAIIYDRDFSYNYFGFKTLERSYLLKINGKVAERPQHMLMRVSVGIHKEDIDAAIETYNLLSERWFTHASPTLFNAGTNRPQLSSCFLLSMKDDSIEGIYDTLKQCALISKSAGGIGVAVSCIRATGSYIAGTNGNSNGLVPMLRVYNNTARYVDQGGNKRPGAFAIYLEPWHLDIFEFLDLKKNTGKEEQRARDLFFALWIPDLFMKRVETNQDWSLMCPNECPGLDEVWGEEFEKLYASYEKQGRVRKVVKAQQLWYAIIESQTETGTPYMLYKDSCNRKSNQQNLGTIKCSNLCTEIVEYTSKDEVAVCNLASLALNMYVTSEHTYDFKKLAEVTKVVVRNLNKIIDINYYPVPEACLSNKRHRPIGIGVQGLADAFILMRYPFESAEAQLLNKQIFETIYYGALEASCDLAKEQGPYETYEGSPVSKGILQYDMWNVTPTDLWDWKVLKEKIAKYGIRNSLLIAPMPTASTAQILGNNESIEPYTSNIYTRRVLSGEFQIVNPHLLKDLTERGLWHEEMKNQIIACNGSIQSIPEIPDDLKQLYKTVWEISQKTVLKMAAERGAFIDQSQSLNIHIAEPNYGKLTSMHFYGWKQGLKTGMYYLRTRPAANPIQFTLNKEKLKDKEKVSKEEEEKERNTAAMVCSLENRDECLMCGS
T1 sequence (P31350 1-389): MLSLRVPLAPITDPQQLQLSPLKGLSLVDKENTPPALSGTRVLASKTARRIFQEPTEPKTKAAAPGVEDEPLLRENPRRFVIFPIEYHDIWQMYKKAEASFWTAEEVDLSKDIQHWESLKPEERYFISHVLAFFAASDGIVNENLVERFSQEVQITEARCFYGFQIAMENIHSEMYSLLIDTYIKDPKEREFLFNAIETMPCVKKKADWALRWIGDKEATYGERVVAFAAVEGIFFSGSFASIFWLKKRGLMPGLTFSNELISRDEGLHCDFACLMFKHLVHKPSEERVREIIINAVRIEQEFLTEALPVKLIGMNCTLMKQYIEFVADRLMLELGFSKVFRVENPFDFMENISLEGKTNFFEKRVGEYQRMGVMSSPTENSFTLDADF

[4] = Body weight change as index of toxicity in MV-4-11 tumor-bearing nude mice; type: in vivo
[5] = test system: A673 cells; assay: Cell proliferation assay in A673 cells treated with siRNA against SLFN11; type: cell-based; conditions: A673 Ewing sarcoma cells, siSLFN11 vs siControl, 3 days of exposure
Method: as §1
(§3) Cell proliferation assay was performed in accordance with conventional methods, available in Hasako, et al., ibid. Briefly, cells treated with siRNAs for 24 h were plated onto 96 well plate and incubated for 24 h, followed by 3 days of exposure to the compound A. After compound exposure, viable cells were detected by using the CellTiter-Glo luminescent cell viability assay (Promega).

[6] = test system: CFPAC-1 cells; assay: Cell proliferation assay in CFPAC-1 cells treated with siRNA against SLFN11; type: cell-based; conditions: pancreatic cancer cell line CFPAC-1, siSLFN11 vs siControl, 3 days of exposure
Method: as §1, §3

[7] = test system: CFPAC-1 cells; assay: Caspase-Glo 3/7 caspase induction assay in CFPAC-1 cells treated with siRNA against SLFN11; type: cell-based; conditions: 10 micro mol/L, 24 h; CFPAC-1 cells transfected with siRNA against SLFN11
Method: as §1, §2

## Cc1ccc(F)c([C@@H](C)[C@H](NS(=O)(=O)c2ccc(Cl)cc2C(N)=O)c2n[nH]c(=O)o2)c1C [Compound A, 5-chloro-2-(N-((1S,2R)-2-(6-fluoro-2,3-dimethylphenyl)-1-(5-oxo-4,5-dihydro-1,3,4-oxadiazol-2-yl)propyl)sulfamoyl)benzamide]
[1]
  compound-induced caspase-3/7 activation after SLFN11 knockdown: suppression
[2]
  compound-induced caspase-3/7 activation after SLFN11 knockdown: suppression
[3]
  RNR inhibitory activity: potent
[4]; 3QW (consecutive) 233 mg/kg/day vs continuous 100 mg/kg/day, total dosage 1400 mg/kg, Day 15, t-test p<0.05
  recovery indicated by BW change %, Group 3QW1-1 compared with Group C-1: better with a statistically significant difference relative to Group C-1
[4]; 3QW (consecutive) 350 mg/kg/day vs continuous 150 mg/kg/day, total dosage 2100 mg/kg, Day 15, t-test p<0.05
  recovery indicated by BW change %, Group 3QW1-2 compared with Group C-2: better with a statistically significant difference relative to Group C-2
[4]; 3QW (every other day) 233 mg/kg/day vs continuous 100 mg/kg/day, total dosage 1400 mg/kg, Day 15, t-test p<0.05
  recovery indicated by BW change %, Group 3QW2-1 compared with Group C-1: better with a statistically significant difference relative to Group C-1
[4]; 3QW (every other day) 350 mg/kg/day vs continuous 150 mg/kg/day, total dosage 2100 mg/kg, Day 15, t-test p<0.05
  recovery indicated by BW change %, Group 3QW2-2 compared with Group C-2: better with a statistically significant difference relative to Group C-2
[4]; 3QW Dosing Group 1, 233 or 350 mg/kg/day orally Days 1-3 and 8-10
  body weight loss (BW change %): body weight loss was observed
[4]; 3QW Dosing Group 2, 233 or 350 mg/kg/day orally Days 1, 3, 5, 8, 10 and 12
  body weight loss (BW change %): body weight loss was observed
[4]; 5QW (2 on/1 off/3 on/1 off) 140 mg/kg/day vs continuous 100 mg/kg/day, total dosage 1400 mg/kg, Day 15
  BW change %, Group 5QW2-1 compared with Group C-1: a statistically significant difference could not be observed
[4]; 5QW (2 on/1 off/3 on/1 off) 210 mg/kg/day vs continuous 150 mg/kg/day, total dosage 2100 mg/kg, Day 15, t-test p<0.05
  recovery indicated by BW change %, Group 5QW2-2 compared with Group C-2: better with a statistically significant difference relative to Group C-2
[4]; 5QW (consecutive) 140 mg/kg/day vs continuous 100 mg/kg/day, total dosage 1400 mg/kg, Day 15, t-test p<0.05
  recovery indicated by BW change %, Group 5QW1-1 compared with Group C-1: better with a statistically significant difference relative to Group C-1
[4]; 5QW (consecutive) 210 mg/kg/day vs continuous 150 mg/kg/day, total dosage 2100 mg/kg, Day 15, t-test p<0.05
  recovery indicated by BW change %, Group 5QW1-2 compared with Group C-2: better with a statistically significant difference relative to Group C-2
[4]; 5QW Dosing Group 1, 140 or 210 mg/kg/day orally Days 1-5 and 8-12
  body weight loss (BW change %): body weight loss was observed
[4]; 5QW Dosing Group 2, 140 or 210 mg/kg/day orally Days 1-2, 4-6, 8-9 and 11-13
  body weight loss (BW change %): body weight loss was observed
[4]; Continuous Dosing Group, 100 or 150 mg/kg/day orally once daily Day 1 to Day 14
  body weight loss (BW change %): body weight loss was observed
[4]; QOD 200 mg/kg/day vs continuous 100 mg/kg/day, total dosage 1400 mg/kg
  BW change %, Group QOD-1 compared with Group C-1: a statistically significant difference could not be observed
[4]; QOD 300 mg/kg/day vs continuous 150 mg/kg/day, total dosage 2100 mg/kg, Day 15, t-test p<0.05
  recovery indicated by BW change %, Group QOD-2 compared with Group C-2: better with a statistically significant difference compared with Group C-2
[4]; QOD Dosing Group, 200 or 300 mg/kg/day orally every other day for two weeks
  body weight loss (BW change %): body weight loss was observed
[4]; QW 700 mg/kg/day vs continuous 100 mg/kg/day, total dosage 1400 mg/kg, Day 15, t-test p<0.05
  recovery indicated by BW change %, Group QW-1 compared with Group C-1: better with a statistically significant difference than Group C-1
[4]; QW 1050 mg/kg/day vs continuous 150 mg/kg/day, total dosage 2100 mg/kg, Day 15, t-test p<0.05
  recovery indicated by BW change %, Group QW-2 compared with Group C-2: better with Group QW-2 having a statistically significant difference relative to Group C-2
[4]; QW Dosing Group, 700 or 1050 mg/kg/day orally once per week for two weeks
  body weight loss (BW change %): body weight loss was observed
[5]
  effect of SLFN11 knockdown with siRNA on the cytotoxic effect: SLFN11 knockdown significantly suppressed the cytotoxic effect
[6]
  effect of SLFN11 knockdown with siRNA on the cytotoxic effect: SLFN11 knockdown significantly suppressed the cytotoxic effect
[7]
  compound-induced caspase-3/7 activation after SLFN11 knockdown: suppression
